# Measured values as given in patent US20240352069A1, “SYNTHETIC PEPTIDE, AND COSMETIC COMPOSITION OR PHARMACEUTICAL COMPOSITION AND APPLICATION THEREOF” (SHENZHEN WINKEY TECHNOLOGY CO., LTD., priority 2021, published 2024).
# Residues, ends and D or L forms follow the SMILES beside them. *: point of attachment. CH2CO2tBu = CC(C)(C)OC(=O)C*; Carboxymethyl = O=C(O)C*; Allyl = C=CC*; X1 = CCCCCCS*; SEt = CCS*
# Experiments:
# HaCaT cells [1] = test: Cell proliferation experiment (MTT), HaCaT; assay type: cell-based, human; conditions: 24 hours
# Text: (§1) Human keratinocytes (HaCaT) were purchased from the Kunming Cell Bank of the Type Culture Collection Committee of the Chinese Academy of Sciences, and mouse skin fibroblasts (NIH3T3) were purchased from the Shanghai Cell Bank of the Type Culture Collection Committee of the Chinese Academy of Sciences.
# (§2) • a) Take cells in good condition in exponential growth phase, add 0.25% trypsin digestion solution, digest to make adherent cells fall off, count 1-4×10^5 cells/mL, and make cell suspension; • b) Appropriately dilute 2000 cells/well of the cell suspension and inoculate it on a 96-well plate at 200 μL/well, and culture it in a constant temperature CO2 incubator for 24 hours. • c) Change the medium, add the sample to be tested, 20 μL/well, and incubate for 24 hours; • d) Add the MTT reagent into the 96-well plate, 20 μL/well, and react in the incubator for 4 hours; • e) Aspirate the supernatant, add DMSO, 150 μL/well, and shake on a plate shaker for 5 minutes; • f) After 5 minutes, use a microplate reader to read the reference OD values at 490 nm and 630 nm wavelengths, and calculate the cell viability:
# (§3) MTT method is a method to detect cell survival and growth. The measured OD value is directly proportional to cell activity. The larger the OD value, the higher the cell activity.
# NIH3T3 cells = test: Cell proliferation experiment (MTT), NIH3T3; assay type: cell-based, mouse; conditions: 24 hours
# Text: as §1, §2, §3
# [2] = Stability of powders under high humidity (HPLC purity); assay type: physicochemical; conditions: powder; for High humidity, Day 10 (purity): RH92.5%, 25° C., 10 days
# Method: The powder samples of peptides (3)-(7) were placed under high humidity (RH92.5%, 25° C.) conditions for 10 days, and the purity changes of each sample were investigated by HPLC.
# HaCaT cells [3] = test: UVB light damage repair experiment (MTT), HaCaT; assay type: cell-based, human; conditions: UVB irradiated, 12.5-100 ppm, 24 hours
# Method: as §1
# Take cells in good exponential growth phase, add 0.25% trypsin digestion solution, digest to make adherent cells fall off, count 1×10^5-4×10^5 cells/mL, and make cell suspension.
# Cells were seeded into 96-well plates at 10,000 cells/well, and the UVB photodamage model was established when the cells reached about 80% confluent. […]
# After 24 hours, add 22 μL of 5 mg/mL MTT to each well, place in an incubator and incubate for 4 hours, discard the original solution, and add 150 μL/well of DMSO. After 5 minutes, use a microplate reader to read the reference OD values at 490 nm and 630 nm wavelengths.
# By establishing a UVB light-damaged cell model, administering 24 hours after ultraviolet light irradiation, and using the MTT method to detect cell proliferation activity, the ability of the peptide of the present invention to repair light-damaged cells was evaluated.
# [4] = Stability of powders at 25° C. and 40° C. (HPLC purity over time)
# Method: (§4) In Example 29, the HPLC chromatographic separation conditions were as follows: • Chromatographic column: Octadecyl bonded silica gel as filler 4.6*250 mm, 5 m • Mobile phase A: Acetonitrile (containing 0.09% trifluoroacetic acid) • Mobile phase B: 0.1% trifluoroacetic acid • Diluent: water • Flow rate: 1.0 ml/min; • Column temperature: 35° C.; • Detection wavelength: 215 nm; • Injection volume: 10 μl; • Running time: 32 min • Gradient elution table:
# (§5) The test solution: Take an appropriate amount of this product and add water to dissolve and dilute to make a solution containing 1 mg per 1 ml.
# [5] = Stability of aqueous solutions (HPLC purity over time); assay type: physicochemical
# Method: as §4, §5
# HaCaT cells [6] = test: Scratch test (cell migration); assay type: cell-based, human; conditions: 24 hours after scratch; peptides 100 ppm, EGF 50 U/mL; vs normal control group
# Method: Human keratinocytes (HaCaT) were purchased from the Kunming Cell Bank of the Type Culture Collection Committee of the Chinese Academy of Sciences.
# The cryopreserved HaCaT cells were cultured, subcultured to about 5 passages according to the ratio of 1:2, and the cells with better growth were selected as the experimental objects. Cells were seeded in a 12-well plate at a density of 200,000 cells/well, with 2 mL of cell suspension in each well. After the cells adhered to the wall, the medium was replaced with 0.5% to 1% fetal bovine serum to maintain the cells for 24 hours to synchronize them. change. Scratch with a sterilized pipette tip, wash off the dropped cells with PBS, add the sample to be tested, continue to incubate in a 37° C., 5% CO2 incubator, and place it under an optical microscope after 24 hours to analyze the wound healing area.
# The cell scratch migration test can reflect the proliferation and repair ability of the cells.
# [7] = 12.5 ppm-100 ppm, vs PBS blank control
molecule,measurement,setting,value
C=CCSCC(NC(=O)C(NC(=O)CNC(=O)C(CCSC)NC(=O)C(CCCNC(=N)N)NC(=O)C(Cc1ccccc1)NC(=O)C1CCCN1C(=O)C(C)N)C(C)CC)C(=O)NC(C(=O)NC(C(=O)NC(CC(N)=O)C(=O)O)C(C)O)C(C)O (stereo not shown) [Peptide (3)] (H-APFRMGIC(Allyl)TTN-OH; configuration not given here),impact on the activity of HaCaT cells compared among peptides (1)-(5),HaCaT cells [1]; 12.5-100 ppm,greater impact on the activity of HaCaT cells
same,effect on the activity of HaCaT cells (MTT),HaCaT cells [1]; [7],"could both improve the activity of HaCaT cells, promote their proliferation"
same,impact on the activity of NIH3T3 cells compared among peptides (1)-(5),NIH3T3 cells; 12.5-100 ppm,greater impact on the activity of NIH3T3 cells
same,effect on the activity of NIH3T3 cells (MTT),NIH3T3 cells; [7],could improve the activity of NIH3T3 cells and promote their proliferation
same,Day 0 (purity),[2],97.605%
same,"High humidity, Day 10 (purity)",[2],96.251%
same,effect on improving activity of photodamaged HaCaT cells compared among peptides (1)-(5),HaCaT cells [3],better effect on improving cell activity
H-Ala-Pro-Phe-Arg-Met-Gly-Ile-Cys-Thr-Thr-Asn-OH (H-APFRMGICTTN-OH) [Reference peptide A],powder (purity),"[4]; 25° C., Day 5",85.913%
same,powder (purity),"[4]; 40° C., Day 5",57.503%
same,powder (purity),"[4]; 40° C., Day 5, listed as reference peptide A",57.503%
same,powder (purity),"[4]; powder, Day 0",88.030%
same,aqueous solution (purity),[5]; Day 8 at room temperature,80.880%
same,aqueous solution (purity),[5]; Day 18 at room temperature,72.693%
same,aqueous solution (purity),"[5]; Day 18 at room temperature, listed as reference peptide A",72.693%
same,aqueous solution (purity),"[5]; Solution, Day 0",88.030%
same,aqueous solution (purity),"[5]; Solution, Day 0, listed as reference peptide A",decreased significantly
CCCCCCSSCC(NC(=O)C(NC(=O)CNC(=O)C(CCSC)NC(=O)C(CCCNC(=N)N)NC(=O)C(Cc1ccccc1)NC(=O)C1CCCN1C(=O)C(C)N)C(C)CC)C(=O)NC(C(=O)NC(C(=O)NC(CC(N)=O)C(=O)O)C(C)O)C(C)O (stereo not shown) [(6)] (H-APFRMGIC(X1)TTN-OH; configuration not given here),Day 0 (purity),[2],96.235%
same,"High humidity, Day 10 (purity)",[2],95.719%
CCSSCC(NC(=O)C(NC(=O)CNC(=O)C(CCSC)NC(=O)C(CCCNC(=N)N)NC(=O)C(Cc1ccccc1)NC(=O)C1CCCN1C(=O)C(C)N)C(C)CC)C(=O)NC(C(=O)NC(C(=O)NC(CC(N)=O)C(=O)O)C(C)O)C(C)O (stereo not shown) [(5)] (H-APFRMGIC(SEt)TTN-OH; configuration not given here),Day 0 (purity),[2],97.482%
same,"High humidity, Day 10 (purity)",[2],94.603%
CCC(C)C(NC(=O)CNC(=O)C(CCSC)NC(=O)C(CCCNC(=N)N)NC(=O)C(Cc1ccccc1)NC(=O)C1CCCN1C(=O)C(C)N)C(=O)NC(CSCC(=O)OC(C)(C)C)C(=O)NC(C(=O)NC(C(=O)NC(CC(N)=O)C(=O)O)C(C)O)C(C)O (stereo not shown) [(4)] (H-APFRMGIC(CH2CO2tBu)TTN-OH; configuration not given here),Day 0 (purity),[2],96.017%
same,"High humidity, Day 10 (purity)",[2],93.962%
CCC(C)C(NC(=O)CNC(=O)C(CCSC)NC(=O)C(CCCNC(=N)N)NC(=O)C(Cc1ccccc1)NC(=O)C1CCCN1C(=O)C(C)N)C(=O)NC(CSCC(=O)O)C(=O)NC(C(=O)NC(C(=O)NC(CC(N)=O)C(=O)O)C(C)O)C(C)O (stereo not shown) [(7)] (H-APFRMGIC(Carboxymethyl)TTN-OH; configuration not given here),Day 0 (purity),[2],98.541%
same,"High humidity, Day 10 (purity)",[2],97.863%
"EGF: epidermal growth factor (EGF), 50 U/mL, positive group in the scratch test",scratch spacing (proliferation and migration),HaCaT cells [6],spacing was significantly shortened
